# Measurements as given in ChEMBL document CHEMBL1201862, “PubChem BioAssay data set” (2004).
#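 Tested at 5 concentrations; 48 h exposure; 96-well plates; endpoints linearly interpolated, else capped at highest concentration. Abbreviation: GI50, concentration required for 50% inhibition of growth.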 Active and inactive are the calls of the source. Cut-off read from the data, not from the text of the source: active = GI50 up to about 1.1 µM and inactive = higher.
# Columns and labels:
# Assay in all cases: NCI tumour cell line growth inhibition, 48 h
# [1] = tested on: NCI-H522
# [2] = tested on: UACC-62
# [3] = tested on: KM-20L2
# [4] = tested on: MOLT-4
# [5] = tested on: HCT-116
# [6] = tested on: OVCAR-4
# [7] = tested on: RPMI-8226
# [8] = tested on: DMS-273
# [9] = tested on: UO-31
# [10] = tested on: SK-MEL-2
# [11] = tested on: LXFL 529
# [12] = tested on: DLD-1
# [13] = tested on: HCC 2998
# [14] = tested on: COLO 205
# [15] = tested on: TK-10
# [16] = tested on: LOX IMVI
# [17] = tested on: HOP-18
# [18] = tested on: CAKI-1
# [19] = tested on: SF-539
# [20] = tested on: ACHN
# [21] = tested on: UACC-257
# [22] = tested on: A498
# [23] = tested on: HL-60
# [24] = tested on: SW-620
# [25] = tested on: 786-0
# [26] = tested on: M14
# [27] = tested on: NCI-H23
# [28] = tested on: OVCAR-8
# [29] = tested on: U-251
# [30] = tested on: A549
# [31] = tested on: SK-MEL-28
# [32] = tested on: SNB-75
# [33] = tested on: HCT-15
# [34] = tested on: XF498
# [35] = tested on: CCRF-CEM
# [36] = tested on: NCI-H460
# [37] = tested on: NCI-H226
# [38] = tested on: DMS-114
# [39] = tested on: OVCAR-3
# [40] = tested on: M19-MEL
# [41] = tested on: HOP-62
# [42] = tested on: KM12
# [43] = tested on: SN12C
# [44] = tested on: SK-MEL-5
# [45] = tested on: SR
# [46] = tested on: OVCAR-5
# [47] = tested on: K562
# [48] = tested on: HOP-92
# [49] = tested on: Malme-3M
# [50] = tested on: SNB-19
# [51] = tested on: SNB-78
# [52] = tested on: IGROV-1
# [53] = tested on: HT-29
# [54] = tested on: SK-OV-3
# [55] = tested on: SF-295
# [56] = tested on: EKVX
# [57] = tested on: SF-268
# [58] = tested on: RXF 393
# [59] = tested on: PC-3
# [60] = tested on: MDA-N
smiles,measurement,setting,value
COc1ccccc1-n1c(N)c2c(C)c(-c3ccccc3)[nH]c2nc1=S,GI50,[1],> 100 µM (inactive)
same,GI50,[2],77.1 µM (inactive)
same,GI50,[3],18.7 µM (inactive)
same,GI50,[4],> 100 µM (inactive)
same,GI50,[5],> 100 µM (inactive)
same,GI50,[6],> 100 µM (inactive)
same,GI50,[7],50.2 µM (inactive)
same,GI50,[8],> 100 µM (inactive)
same,GI50,[9],> 100 µM (inactive)
same,GI50,[10],> 100 µM (inactive)
same,GI50,[11],> 100 µM (inactive)
same,GI50,[12],> 100 µM (inactive)
same,GI50,[13],> 100 µM (inactive)
same,GI50,[14],> 100 µM (inactive)
same,GI50,[15],> 100 µM (inactive)
same,GI50,[16],> 100 µM (inactive)
same,GI50,[17],4.04 µM (inactive)
same,GI50,[18],> 100 µM (inactive)
same,GI50,[19],33.7 µM (inactive)
same,GI50,[20],> 100 µM (inactive)
same,GI50,[21],> 100 µM (inactive)
same,GI50,[22],> 100 µM (inactive)
same,GI50,[23],> 100 µM (inactive)
same,GI50,[24],> 100 µM (inactive)
same,GI50,[25],> 100 µM (inactive)
same,GI50,[26],> 100 µM (inactive)
same,GI50,[27],79.4 µM (inactive)
same,GI50,[28],> 100 µM (inactive)
same,GI50,[29],54.3 µM (inactive)
same,GI50,[30],5.74 µM (inactive)
same,GI50,[31],> 100 µM (inactive)
same,GI50,[32],59.3 µM (inactive)
same,GI50,[33],> 100 µM
same,GI50,[34],> 100 µM (inactive)
same,GI50,[35],> 100 µM (inactive)
same,GI50,[36],> 100 µM (inactive)
same,GI50,[37],63 µM (inactive)
same,GI50,[38],> 100 µM (inactive)
same,GI50,[39],> 100 µM (inactive)
same,GI50,[40],> 100 µM (inactive)
same,GI50,[41],> 100 µM (inactive)
same,GI50,[42],> 100 µM (inactive)
same,GI50,[43],> 100 µM (inactive)
same,GI50,[44],4.76 µM (inactive)
same,GI50,[45],> 100 µM (inactive)
same,GI50,[46],> 100 µM (inactive)
same,GI50,[47],> 100 µM (inactive)
same,GI50,[48],> 100 µM (inactive)
same,GI50,[49],91.8 µM (inactive)
same,GI50,[50],> 100 µM (inactive)
O=c1cc2ccccc2nn1-c1ccccc1Cl,GI50,[2],89.3 µM (inactive)
same,GI50,[3],> 100 µM (inactive)
same,GI50,[51],> 100 µM (inactive)
same,GI50,[5],74.5 µM (inactive)
same,GI50,[6],> 100 µM (inactive)
same,GI50,[7],42.4 µM (inactive)
same,GI50,[52],> 100 µM (inactive)
same,GI50,[8],78.5 µM (inactive)
same,GI50,[9],26.2 µM (inactive)
same,GI50,[10],> 100 µM (inactive)
same,GI50,[12],> 100 µM (inactive)
same,GI50,[13],> 100 µM (inactive)
same,GI50,[53],> 100 µM (inactive)
same,GI50,[54],> 100 µM (inactive)
same,GI50,[14],> 100 µM (inactive)
same,GI50,[15],> 100 µM (inactive)
same,GI50,[16],> 100 µM (inactive)
same,GI50,[17],> 100 µM (inactive)
same,GI50,[18],> 100 µM (inactive)
same,GI50,[19],> 100 µM (inactive)
same,GI50,[20],> 100 µM (inactive)
same,GI50,[55],> 100 µM (inactive)
same,GI50,[21],> 100 µM (inactive)
same,GI50,[22],> 100 µM (inactive)
same,GI50,[24],> 100 µM (inactive)
same,GI50,[25],> 100 µM (inactive)
same,GI50,[26],> 100 µM (inactive)
same,GI50,[27],67.9 µM (inactive)
same,GI50,[28],> 100 µM (inactive)
same,GI50,[29],> 100 µM (inactive)
same,GI50,[30],> 100 µM (inactive)
same,GI50,[56],> 100 µM (inactive)
same,GI50,[31],> 100 µM (inactive)
same,GI50,[32],59.6 µM (inactive)
same,GI50,[33],92.5 µM
same,GI50,[34],27 µM (inactive)
same,GI50,[35],86.3 µM (inactive)
same,GI50,[36],> 100 µM (inactive)
same,GI50,[37],> 100 µM (inactive)
same,GI50,[38],48.3 µM (inactive)
same,GI50,[39],81.3 µM (inactive)
same,GI50,[40],> 100 µM (inactive)
same,GI50,[41],> 100 µM (inactive)
same,GI50,[42],> 100 µM (inactive)
same,GI50,[57],85.7 µM (inactive)
same,GI50,[43],> 100 µM (inactive)
same,GI50,[44],69 µM (inactive)
same,GI50,[46],> 100 µM (inactive)
same,GI50,[47],59.6 µM (inactive)
same,GI50,[48],> 100 µM (inactive)
same,GI50,[49],> 100 µM (inactive)
same,GI50,[50],> 100 µM (inactive)
CC1=C2C(=CC(C)(C)[C@@H]2O)C(=O)[C@](C)(O)C12CC2 [ILLUDIN M],GI50,[1],0.0115 µM (active)
same,GI50,[2],0.0208 µM (active)
same,GI50,[3],0.0156 µM (active)
same,GI50,[4],0.01 µM (active)
same,GI50,[5],0.01 µM (active)
same,GI50,[6],< 0.0112 µM (active)
same,GI50,[7],0.839 µM (active)
same,GI50,[52],0.00989 µM (active)
same,GI50,[8],0.01 µM (active)
same,GI50,[9],0.0246 µM (active)
same,GI50,[10],0.0134 µM (active)
same,GI50,[58],0.00329 µM (active)
same,GI50,[59],0.0138 µM (active)
same,GI50,[11],0.022 µM (active)
same,GI50,[12],0.0138 µM (active)
same,GI50,[13],< 0.0117 µM (active)
same,GI50,[53],< 0.0126 µM (active)
same,GI50,[54],0.0197 µM (active)
same,GI50,[14],0.0243 µM (active)
same,GI50,[15],< 0.0182 µM (active)
same,GI50,[16],0.0172 µM (active)
same,GI50,[17],0.0313 µM (active)
same,GI50,[18],0.0209 µM (active)
same,GI50,[19],0.0184 µM (active)
same,GI50,[20],< 0.011 µM (active)
same,GI50,[55],< 0.018 µM (active)
same,GI50,[21],0.08 µM (active)
same,GI50,[22],0.0206 µM (active)
same,GI50,[23],0.0156 µM (active)
same,GI50,[24],0.013 µM (active)
same,GI50,[25],0.01 µM (active)
same,GI50,[26],0.0156 µM (active)
same,GI50,[27],< 0.0126 µM (active)
same,GI50,[28],< 0.018 µM (active)
same,GI50,[29],0.01 µM (active)
same,GI50,[30],0.0275 µM (active)
same,GI50,[56],0.0773 µM (active)
same,GI50,[31],< 0.0209 µM (active)
same,GI50,[32],0.0165 µM (active)
same,GI50,[33],0.0129 µM
same,GI50,[34],0.01 µM (active)
same,GI50,[35],0.0168 µM (active)
same,GI50,[36],0.01 µM (active)
same,GI50,[37],0.0619 µM (active)
same,GI50,[38],0.0251 µM (active)
same,GI50,[39],< 0.0143 µM (active)
same,GI50,[40],0.0246 µM (active)
same,GI50,[41],0.0185 µM (active)
same,GI50,[42],0.0284 µM (active)
same,GI50,[57],0.0162 µM (active)
same,GI50,[43],0.0236 µM (active)
same,GI50,[44],0.0126 µM (active)
same,GI50,[45],0.01 µM (active)
same,GI50,[60],0.0171 µM (active)
same,GI50,[46],0.0183 µM (active)
same,GI50,[47],0.0181 µM (active)
same,GI50,[48],0.0193 µM (active)
same,GI50,[49],0.022 µM (active)
same,GI50,[50],0.027 µM (active)
